Test results: patent publication US9980943B2, “Methods of treating muscular dystrophy” (BOARD OF REGENTS OF THE NEVADA SYSTEM OF HIGHER EDUCATION, …, priority 2013, dated 2018)

Key:
Assay type in all cases: cell-based, mouse
[1] = test system: α7 integrin (LacZ reporter in α7βgal+/− myoblasts); test: Myoblast α7+/LacZ integrin FDG assay (Burkin assay in myoblasts, 96-well); conditions: for Burkin Assay in Myoblasts, signal relative to DMSO: α7+/LacZ myoblasts, 96-well
[2] = test system: α7 integrin (LacZ reporter in α7+/LacZ myotubes); test: Myotube α7 integrin FDG assay (Burkin assay in myotubes, 96-well); conditions: for Burkin Assay in Myotubes, value relative to DMSO: SU9516 analogs, 96-well, N=3-6
[3] = test system: β-galactosidase in CMV-LacZ C2C12 myoblasts; test: CMV-LacZ secondary screen in C2C12 myoblasts (β-Gal stabilizing assay); conditions: for CMV-LACZ in Myoblasts (β-galactosidase activity relative to DMSO): CMV-LacZ C2C12 myoblasts; for CMV-LACZ in Myoblasts, value relative to DMSO: SU9516 analogs, C2C12 CMV-LacZ, N=2
In short: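 C2C12 myoblasts stably carrying a linearized CMV-driven LacZ construct, clone chosen by β-gal level in the myoblast FDG assay. Compounds tested in 96-well dose-response at 0.5, 1, 5, 10, 20 and 40 μM, N=2 replicates per point, to detect β-gal stabilization.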

[4] = test system: β-galactosidase in CMV-LacZ C2C12 myotubes; test: CMV-LacZ secondary screen in C2C12 myotubes (β-Gal stabilizing assay); conditions: for CMV-LACZ in Myotubes, signal relative to DMSO: C2C12 CMV-LacZ myotubes, fold relative to DMSO; for CMV-LACZ in Myotubes, value relative to DMSO: SU9516 analogs, C2C12 CMV-LacZ, N=2
In short: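 β-gal stabilization was measured in C2C12 myoblasts or myotubes stably transfected with a CMV-driven LacZ construct, using the FDG β-gal assay. Compounds were tested in dose-response at 0.5, 1, 5, 10, 20 and 40 μM, with two replicates per point.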

[5] = Mus musculus, Myoblast, 48 h, read-out: Burkin Assay in Myoblasts, value relative to DMSO

Nc1cccc(/C=C/C(=O)O)c1 [MLS000777780-01]
Burkin Assay in Myoblasts, signal relative to DMSO ([1]; 0.5 uM): 1.136 | Burkin Assay in Myoblasts, signal relative to DMSO ([1]; 1 uM): 1.056 | Burkin Assay in Myoblasts, signal relative to DMSO ([1]; 5 uM): 0.9439 | Burkin Assay in Myoblasts, signal relative to DMSO ([1]; 10 uM): 1.248 | Burkin Assay in Myoblasts, signal relative to DMSO ([1]; 20 uM): 0.9133 | Burkin Assay in Myoblasts, signal relative to DMSO ([1]; 40 uM): 0.7231 | Burkin Assay in Myotubes, α7 integrin LacZ reporter signal relative to DMSO ([2]; 0.5 uM): 1.047 | Burkin Assay in Myotubes, α7 integrin LacZ reporter signal relative to DMSO ([2]; 1 uM): 0.9837 | Burkin Assay in Myotubes, α7 integrin LacZ reporter signal relative to DMSO ([2]; 5 uM): 0.8697 | Burkin Assay in Myotubes, α7 integrin LacZ reporter signal relative to DMSO ([2]; 10 uM): 0.9393 | Burkin Assay in Myotubes, α7 integrin LacZ reporter signal relative to DMSO ([2]; 20 uM): 0.8814 | Burkin Assay in Myotubes, α7 integrin LacZ reporter signal relative to DMSO ([2]; 40 uM): 0.7756 | CMV-LACZ in Myoblasts (β-galactosidase activity relative to DMSO) ([3]; 0.5 uM): 0.8779 | CMV-LACZ in Myoblasts (β-galactosidase activity relative to DMSO) ([3]; 1 uM): 0.9063 | CMV-LACZ in Myoblasts (β-galactosidase activity relative to DMSO) ([3]; 5 uM): 0.9893 | CMV-LACZ in Myoblasts (β-galactosidase activity relative to DMSO) ([3]; 10 uM): 1.0126 | CMV-LACZ in Myoblasts (β-galactosidase activity relative to DMSO) ([3]; 20 uM): 1.3393 | CMV-LACZ in Myoblasts (β-galactosidase activity relative to DMSO) ([3]; 40 uM): 0.9463 | CMV-LACZ in Myotubes, signal relative to DMSO ([4]; 0.5 uM): 0.8914 | CMV-LACZ in Myotubes, signal relative to DMSO ([4]; 1 uM): 0.8838 | CMV-LACZ in Myotubes, signal relative to DMSO ([4]; 5 uM): 1.0471 | CMV-LACZ in Myotubes, signal relative to DMSO ([4]; 10 uM): 0.8808 | CMV-LACZ in Myotubes, signal relative to DMSO ([4]; 20 uM): 0.9316 | CMV-LACZ in Myotubes, signal relative to DMSO ([4]; 40 uM): 1.0474

COc1ccc(Cl)cc1NC(=O)c1cc(-c2cc(C)ccc2O)n[nH]1 [MLS000779126-01]
Burkin Assay in Myoblasts, signal relative to DMSO ([1]; 0.5 uM): 1.019 | Burkin Assay in Myoblasts, signal relative to DMSO ([1]; 1 uM): 1.115 | Burkin Assay in Myoblasts, signal relative to DMSO ([1]; 5 uM): 0.9229 | Burkin Assay in Myoblasts, signal relative to DMSO ([1]; 10 uM): 0.8196 | Burkin Assay in Myoblasts, signal relative to DMSO ([1]; 20 uM): 0.9124 | Burkin Assay in Myoblasts, signal relative to DMSO ([1]; 40 uM): 0.9389 | Burkin Assay in Myotubes, α7 integrin LacZ reporter signal relative to DMSO ([2]; 0.5 uM): 0.9836 | Burkin Assay in Myotubes, α7 integrin LacZ reporter signal relative to DMSO ([2]; 1 uM): 1.018 | Burkin Assay in Myotubes, α7 integrin LacZ reporter signal relative to DMSO ([2]; 5 uM): 0.9146 | Burkin Assay in Myotubes, α7 integrin LacZ reporter signal relative to DMSO ([2]; 10 uM): 0.8758 | Burkin Assay in Myotubes, α7 integrin LacZ reporter signal relative to DMSO ([2]; 20 uM): 0.8832 | Burkin Assay in Myotubes, α7 integrin LacZ reporter signal relative to DMSO ([2]; 40 uM): 0.7768 | CMV-LACZ in Myoblasts (β-galactosidase activity relative to DMSO) ([3]; 0.5 uM): 0.9751 | CMV-LACZ in Myoblasts (β-galactosidase activity relative to DMSO) ([3]; 1 uM): 0.9994 | CMV-LACZ in Myoblasts (β-galactosidase activity relative to DMSO) ([3]; 5 uM): 0.9637 | CMV-LACZ in Myoblasts (β-galactosidase activity relative to DMSO) ([3]; 10 uM): 0.7610 | CMV-LACZ in Myoblasts (β-galactosidase activity relative to DMSO) ([3]; 20 uM): 0.9944 | CMV-LACZ in Myoblasts (β-galactosidase activity relative to DMSO) ([3]; 40 uM): 0.7441 | CMV-LACZ in Myotubes, signal relative to DMSO ([4]; 0.5 uM): 0.9495 | CMV-LACZ in Myotubes, signal relative to DMSO ([4]; 1 uM): 1.2162 | CMV-LACZ in Myotubes, signal relative to DMSO ([4]; 5 uM): 1.0257 | CMV-LACZ in Myotubes, signal relative to DMSO ([4]; 10 uM): 1.0467 | CMV-LACZ in Myotubes, signal relative to DMSO ([4]; 20 uM): 0.9988 | CMV-LACZ in Myotubes, signal relative to DMSO ([4]; 40 uM): 1.1671

CCc1nc(/C=C2\C(=O)Nc3ccccc32)c[nH]1 [MLS000834755-01]
fold induction at 0.5 µM [1, 5]: 1.27 | fold induction at 1 µM [1, 5]: 1.08 | fold induction at 5 µM [1, 5]: 1.08 | fold induction at 10 µM [1, 5]: 1.16 | fold induction at 20 µM [1, 5]: 1.19 | fold induction at 40 µM [1, 5]: 0.796 | Burkin Assay in Myotubes, value relative to DMSO ([2]; 0.5 uM): 1.263 | Burkin Assay in Myotubes, value relative to DMSO ([2]; 1 uM): 1.232 | Burkin Assay in Myotubes, value relative to DMSO ([2]; 5 uM): 1.003 | Burkin Assay in Myotubes, value relative to DMSO ([2]; 10 uM): 0.9868 | Burkin Assay in Myotubes, value relative to DMSO ([2]; 20 uM): 0.9687 | Burkin Assay in Myotubes, value relative to DMSO ([2]; 40 uM): 0.816 | CMV-LACZ in Myoblasts, value relative to DMSO ([3]; 0.5 uM): 1.0317 | CMV-LACZ in Myoblasts, value relative to DMSO ([3]; 1 uM): 1.0400 | CMV-LACZ in Myoblasts, value relative to DMSO ([3]; 5 uM): 0.9591 | CMV-LACZ in Myoblasts, value relative to DMSO ([3]; 10 uM): 0.9834 | CMV-LACZ in Myoblasts, value relative to DMSO ([3]; 20 uM): 0.9007 | CMV-LACZ in Myoblasts, value relative to DMSO ([3]; 40 uM): 0.9133 | CMV-LACZ in Myotubes, value relative to DMSO ([4]; 0.5 uM): 0.5547 | CMV-LACZ in Myotubes, value relative to DMSO ([4]; 1 uM): 1.2863 | CMV-LACZ in Myotubes, value relative to DMSO ([4]; 5 uM): 1.0514 | CMV-LACZ in Myotubes, value relative to DMSO ([4]; 10 uM): 1.1048 | CMV-LACZ in Myotubes, value relative to DMSO ([4]; 20 uM): 1.2989 | CMV-LACZ in Myotubes, value relative to DMSO ([4]; 40 uM): 0.8789
